In one data set the test system is Fibroblasts. Format: cell-based. The note with it: 10^-4 M; for Procollagen Synthesis (%): 24 h, serum-free media, untreated group taken as 100%. As for the experimental part: Fibroblasts were seeded into each well of a 24-well plate at density of 10^6 cells and cultured to 90% confluence. The cultured cells were cultured in serum-free media for 24 hours and then treated with 10^−4 M of each of tocopherol, sesamol and the sesamol derivative of Example 1, which have been dissolved in serum-free media. Then, the cells were cultured in a CO2 incubator for 24 hours. The supernatants of the cell culture media were collected and observed for an increase or decrease in procollagen using a Procollagen type (A) kit. The test results are shown in Table 2 below, in which the effect of each compound on the procollagen synthesis is compared with that of an untreated group, taken as 100%.

The test system of data set [1] is Human keratinocytes (HaCat). It counts as cell-based. As to conditions: for Malonaldehyde and 4-hydroxy alkenal: HaCat, untreated group taken as 100. As for the experimental part:
Human keratinocytes (HaCat) were plated at a density of 1.0×10^6 per 60-mm dish and then cultured in penicillin/streptomycin-containing DMEM (10% FBS) media at conditions of 37° C. and 5% CO2 for 1 week. Then, the culture media were treated with 10^−4 M of each of sesamol, the sesamol derivative of Example 1, and tocopherol as appositive control, for 24 hours. At the next day, the media were treated with 4 mM of t-BHP (t-butyl hydroperoxide) together with each of said compounds and then cultured at conditions of 37° C. and 5% CO2 for 4 hours, after which the cells were collected. The collected cells were dissolved by repeatedly performing freezing/thawing processes, and the following tests were performed in accordance with the method described in an assay kit.
In other words, in the present invention, a lipid peroxide assay kit (Calbiochem) was used as a reagent, and lipid peroxidation was measured using the principle in which long-chain unsaturated fatty acids such as malonaldehyde and 4-hydroxy alkenal form stable compounds at 586 nm by reaction with said reagent. The measurement results are shown in Table 1 below in comparison with an untreated group taken as 100.

The subject of a further data set is alkaline phosphatase. In words: Hydrolysis by phosphatase in phosphate buffer, HPLC of 3-aminopropane phosphoric acid formed. It counts as in vitro ADME. The note with it: alkaline phosphatase (Sigma-Aldrich), phosphate buffer pH 7.4, HPLC, FIG. 1. As for the experimental part: In order to examine whether the sesamol, 3-aminopropane phosphoric acid diester is hydrolyzed by phosphatase present on the skin into sesamol and 3-aminopropane phosphoric acid, the following test was performed. The sesamol, 3-aminopropane phosphoric acid diester of Example 1 and phsophatase were added in phosphate buffer (pH 7.4), followed by hydrolysis. As the phosphatase, alkaline phosphatase commercially available from Sigma-Aldrich Co. was used. The amount of 3-aminopropane phosphoric acid formed as the hydrolysis progressed was measured by HPLC (high-performance liquid chromatography), and the measurement results are shown in FIG. 1.

The mark [2] stands for this setting: 10^-4 M compound 24 h, then 4 mM t-BHP together with compound 4 h.

Like-named read-outs stand apart in the source and are kept apart here.

Consider tocopherol, for which the “Procollagen Synthesis (%)” value in the data set with Fibroblasts is given as 110%. For the same compound, the “Malonaldehyde and 4-hydroxy alkenal” value in data set [1] (setting [2]) was 270.

For `Oc1ccc2c(c1)OCO2` [Sesamol, sesamol], the “Procollagen Synthesis (%)” value in the data set with Fibroblasts came to 103%. For the same compound, in data set [1] (setting [2]), the “Malonaldehyde and 4-hydroxy alkenal” value is reported as 250.

For `NCCCOP(=O)(O)Oc1ccc2c(c1)OCO2` [Sesamol derivative of Example 1, sesamol, 3-aminopropane phosphoric acid diester (I)], in the data set on Fibroblasts, the “Procollagen Synthesis (%)” value was determined as 125%. Moreover, the “effect on collagen biosynthesis (in words)” value with Fibroblasts (fibroblasts) is “showed the effect of increasing collagen biosynthesis”. Further, in the data set on alkaline phosphatase, the “hydrolysis by phosphatase into sesamol and 3-aminopropane phosphoric acid” value is “can be hydrolyzed by phosphatase”. Further, in data set [1] (setting [2]), the “Malonaldehyde and 4-hydroxy alkenal” value stood at 260. Besides, the “antioxidant effect (in words)” value in data set [1] (10^-4 M, t-BHP-treated HaCat, compared with sesamol and tocopherol) was “antioxidant effect similar to those of sesamol and the positive control tocopherol”.

For the compound `CC(C)(C)OO` [t-BHP, t-butyl hydroperoxide], the “Malonaldehyde and 4-hydroxy alkenal” value in data set [1] (4 mM t-BHP alone, 4 h) is 320.
